This test concerns the target T1, Glucocorticoid receptor (Homo sapiens, UniProt P04150).
T1 sequence (P04150 whole entry): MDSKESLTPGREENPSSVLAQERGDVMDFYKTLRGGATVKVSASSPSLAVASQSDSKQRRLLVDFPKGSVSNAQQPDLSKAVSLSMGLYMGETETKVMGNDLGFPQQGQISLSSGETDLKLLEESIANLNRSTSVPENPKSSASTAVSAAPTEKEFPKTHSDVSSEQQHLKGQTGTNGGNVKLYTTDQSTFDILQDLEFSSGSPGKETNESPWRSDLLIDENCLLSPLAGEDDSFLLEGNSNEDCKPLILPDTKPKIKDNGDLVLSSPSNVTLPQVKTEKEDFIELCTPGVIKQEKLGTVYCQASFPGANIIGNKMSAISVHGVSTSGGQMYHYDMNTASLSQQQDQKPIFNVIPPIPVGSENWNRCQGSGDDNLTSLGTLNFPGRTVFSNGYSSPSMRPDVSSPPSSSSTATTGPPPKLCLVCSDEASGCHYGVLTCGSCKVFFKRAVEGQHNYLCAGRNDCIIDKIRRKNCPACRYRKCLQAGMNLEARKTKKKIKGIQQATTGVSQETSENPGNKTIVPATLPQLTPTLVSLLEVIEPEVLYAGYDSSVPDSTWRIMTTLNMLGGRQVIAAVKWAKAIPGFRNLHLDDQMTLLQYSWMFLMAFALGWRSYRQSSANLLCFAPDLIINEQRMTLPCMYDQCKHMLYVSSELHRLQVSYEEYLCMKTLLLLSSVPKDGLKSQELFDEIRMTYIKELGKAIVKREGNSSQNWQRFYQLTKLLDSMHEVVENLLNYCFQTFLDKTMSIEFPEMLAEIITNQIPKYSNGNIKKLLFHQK
Put plainly: GR Binding Assay. The protocol:
Binding of test compounds to the glucocorticoid receptor (GR) is determined using a fluorescence polarisation (FP) assay utilising a recombinant ligand binding domain (LBD) of GR. The test compounds are assessed by their ability to displace a fluorescently tagged ligand and detection of the resulting decrease in fluorescence polarisation.

Turning to `Cc1cc2c(cnn2-c2ccc(F)cc2)cc1[C@@]12CN(S(=O)(=O)c3cnn(C)n3)C[C@@H]1[C@H]2C(=O)N1CCC1` [US20250115583, Example 59], the affinity corresponds to a Ki of 0.36 µM. Consider `Cc1cc2c(cnn2-c2ccc(F)cc2)cc1[C@@]12CN(C(=O)c3nn(C)cc3Cl)C[C@@H]1[C@H]2c1ccccc1` [US20250115583, Example 178], for which the inhibition constant Ki (in general, the dissociation constant of the complex between target and ligand, obtained from inhibition or displacement) was 0.019 µM.

Values taken from BindingDB's records for patent US20250115583 (Corcept Therapeutics, 2025).
